Experimental data taken from patent US11389466B2 (priority 2017, dated 2022).
Where “and” joins values, the source holds several entries; their conditions need not be identical. Equal entries are not always repeated. Where two headings read alike, the source gives them in different places.

Experiments:
AFL lectin = AFL lectin (Aspergillus fumigatus, UniProt Q4WW81); test: biochemical; format: binding; settings: for Stoichiometry: amount of ligand bound to a single protein; for β (β-factor, relative potency per ligand): β=(Kd)monovalent/[(Kd)multivalent×Valency], calculated from methylfucoside
Chain of AFL lectin (Q4WW81 whole entry): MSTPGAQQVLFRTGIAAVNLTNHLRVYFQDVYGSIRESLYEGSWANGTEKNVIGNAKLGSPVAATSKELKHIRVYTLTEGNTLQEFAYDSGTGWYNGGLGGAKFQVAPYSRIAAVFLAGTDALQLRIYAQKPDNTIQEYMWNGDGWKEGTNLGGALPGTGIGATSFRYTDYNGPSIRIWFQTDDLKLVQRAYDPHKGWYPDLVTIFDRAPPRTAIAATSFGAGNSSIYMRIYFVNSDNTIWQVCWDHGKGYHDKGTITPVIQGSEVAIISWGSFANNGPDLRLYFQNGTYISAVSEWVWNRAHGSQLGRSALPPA

[1] = test system: Aspergillus fumigatus conidia (adhesion on pneumocytes A549); format: cell-based
[2] = Table 2, second batch of purified AFL protein

Compound: C[C@@H]1O[C@@H](OCc2cn(CCOCCOCCOCCn3cc(CO[C@@H]4O[C@@H](C)[C@@H](O)[C@@H](O)[C@@H]4O)nn3)nn2)[C@@H](O)[C@H](O)[C@@H]1O [Compound 24]
- Kd (AFL lectin): 3800 ± 300 nM
- −TΔS (AFL lectin; Table 1, first AFL batch): 11 ± 0.72 kcal/mol
- −ΔG (AFL lectin; Table 1, first AFL batch): 7.41 ± 0.048 kcal/mol
- −ΔH (AFL lectin; Table 1, first AFL batch): 18.4 ± 0.72 kcal/mol
- Stoichiometry (AFL lectin; Table 1, first AFL batch): 2.12 and 2.12 ± 0.03
- β (β-factor, relative potency per ligand) (AFL lectin): 68
- decrease of the adhesion of the conidia ([1]; 100 μM in fucose equivalent): 37%

Compound: C[C@@H]1O[C@@H](OCc2cn(CCOCCOCCOCCOCCOCCOCCOCCOCCOCCOCCOCCn3cc(CO[C@@H]4O[C@@H](C)[C@@H](O)[C@@H](O)[C@@H]4O)nn3)nn2)[C@@H](O)[C@H](O)[C@@H]1O [Compound 26]
- Kd (AFL lectin): 550 nM
- −TΔS (AFL lectin; Table 1, first AFL batch): 8.6 ± 0.14 kcal/mol
- −ΔG (AFL lectin; Table 1, first AFL batch): 8.58 ± 0.22 kcal/mol
- −ΔH (AFL lectin; Table 1, first AFL batch): 17.7 ± 1.4 kcal/mol
- Stoichiometry (AFL lectin; Table 1, first AFL batch): 2.35 and 2.35 ± 0.31
- β (β-factor, relative potency per ligand) (AFL lectin): 470
- residual adhesion of the conidia on the pneumocytes ([1]; 10 μM in fucose equivalent): 76%

Compound: CC1OC(OCCOCCOCc2cn(CC3OC4OC5C(Cn6cc(COCCOCCOC7OC(C)C(O)C(O)C7O)nn6)OC(OC6C(Cn7cc(COCCOCCOC8OC(C)C(O)C(O)C8O)nn7)OC(OC7C(Cn8cc(COCCOCCOC9OC(C)C(O)C(O)C9O)nn8)OC(OC8C(Cn9cc(COCCOCCOC%10OC(C)C(O)C(O)C%10O)nn9)OC(OC9C(Cn%10cc(COCCOCCOC%11OC(C)C(O)C(O)C%11O)nn%10)OC(OC3C(O)C4O)C(O)C9O)C(O)C8O)C(O)C7O)C(O)C6O)C(O)C5O)nn2)C(O)C(O)C1O (stereo not drawn) [Compound 29]
- Kd (AFL lectin; Table 1, first AFL batch): 600 nM
- −TΔS (AFL lectin; Table 1, first AFL batch): 30 ± 0.14 kcal/mol
- −ΔG (AFL lectin; Table 1, first AFL batch): 8.48 ± 0.024 kcal/mol
- −ΔH (AFL lectin; Table 1, first AFL batch): 38.5 ± 0.24 kcal/mol
- Stoichiometry (AFL lectin; Table 1, first AFL batch): 1.01 ± 0.02
- Kd (AFL lectin; [2]): 530 ± 40 nM
- N (stoichiometry) (AFL lectin; [2]): 1.20 ± 0.09
- −TΔS (AFL lectin; [2]): 32.53 ± 3.61 kcal/mol
- −ΔG (AFL lectin; [2]): 8.58 ± 0.048 kcal/mol
- −ΔH (AFL lectin; [2]): 41.06 ± 3.66 kcal/mol
- Kd values (in words) (AFL lectin; first AFL batch): sub-micromolar range
- enthalpic contribution, times higher than the reference monovalent compound 33 (AFL lectin; first AFL batch): 2.7
- increase of the −TΔS factor versus the reference monovalent compound (AFL lectin; first AFL batch): 3.3
- β (β-factor, relative potency per ligand) (AFL lectin): 144
- formation of spore agglomerates (microscope observation) ([1]; A. fumigatus spores, compound 29 at 10 μM): formation of A. fumigatus spore agglomerates

Compound: CC1OC(OCCOCCOCCOCCOCc2cn(CC3OC4OC5C(Cn6cc(COCCOCCOCCOCCOC7OC(C)C(O)C(O)C7O)nn6)OC(OC6C(Cn7cc(COCCOCCOCCOCCOC8OC(C)C(O)C(O)C8O)nn7)OC(OC7C(Cn8cc(COCCOCCOCCOCCOC9OC(C)C(O)C(O)C9O)nn8)OC(OC8C(Cn9cc(COCCOCCOCCOCCOC%10OC(C)C(O)C(O)C%10O)nn9)OC(OC9C(Cn%10cc(COCCOCCOCCOCCOC%11OC(C)C(O)C(O)C%11O)nn%10)OC(OC3C(O)C4O)C(O)C9O)C(O)C8O)C(O)C7O)C(O)C6O)C(O)C5O)nn2)C(O)C(O)C1O (stereo not drawn) [Compound 30]
- Kd (AFL lectin; Table 1, first AFL batch): 180 nM
- −TΔS (AFL lectin; Table 1, first AFL batch): 43.3 ± 1.9 kcal/mol
- −ΔG (AFL lectin; Table 1, first AFL batch): 9.18 ± 0.048 kcal/mol
- −ΔH (AFL lectin; Table 1, first AFL batch): 52.6 ± 1.9 kcal/mol
- Stoichiometry (AFL lectin; Table 1, first AFL batch): 0.77 ± 0.04
- Kd (AFL lectin; [2]): 130 ± 10 nM
- N (stoichiometry) (AFL lectin; [2]): 0.95 ± 0.02
- −TΔS (AFL lectin; [2]): 40.49 ± 0.14 kcal/mol
- −ΔG (AFL lectin; [2]): 9.39 ± 0.072 kcal/mol
- −ΔH (AFL lectin; [2]): 49.93 ± 0.239 kcal/mol
- Kd (AFL lectin; first AFL batch): 180 nM
- Kd values (in words) (AFL lectin; first AFL batch): sub-micromolar range
- enthalpic contribution, times higher than the reference monovalent compound 33 (AFL lectin; first AFL batch): 3.7
- increase of the −TΔS factor versus the reference monovalent compound (AFL lectin; first AFL batch): 4.7
- β (β-factor, relative potency per ligand) (AFL lectin): 479

Compound: C[C@@H]1O[C@@H](OCc2cn(CCOCCOCCOCCO)nn2)[C@@H](O)[C@H](O)[C@@H]1O [Compound 33, reference compound]
- Kd (AFL lectin): 167000 nM
- −TΔS (AFL lectin; Table 1, first AFL batch): 9.08 ± 2.2 kcal/mol
- −ΔG (AFL lectin; Table 1, first AFL batch): 5.26 ± 0.24 kcal/mol
- −ΔH (AFL lectin; Table 1, first AFL batch): 14.3 ± 1.9 kcal/mol
- Stoichiometry (AFL lectin; Table 1, first AFL batch): 4.0 ± 0.3
- β (β-factor, relative potency per ligand) (AFL lectin): 3
- anti-adhesive activity (in words) ([1]; concentrations of 1 and 10 μM in fucose equivalent): absence of anti-adhesive activity

Compound: CC1OC(OCc2cn(CCOCCOCCOCCSCC[Si]34O[Si]5(CCSCCOCCOCCOCCn6cc(COC7OC(C)C(O)C(O)C7O)nn6)O[Si]6(CCSCCOCCOCCOCCn7cc(COC8OC(C)C(O)C(O)C8O)nn7)O[Si](CCSCCOCCOCCOCCn7cc(COC8OC(C)C(O)C(O)C8O)nn7)(O3)O[Si]3(CCSCCOCCOCCOCCn7cc(COC8OC(C)C(O)C(O)C8O)nn7)O[Si](CCSCCOCCOCCOCCn7cc(COC8OC(C)C(O)C(O)C8O)nn7)(O4)O[Si](CCSCCOCCOCCOCCn4cc(COC7OC(C)C(O)C(O)C7O)nn4)(O5)O[Si](CCSCCOCCOCCOCCn4cc(COC5OC(C)C(O)C(O)C5O)nn4)(O6)O3)nn2)C(O)C(O)C1O (stereo not drawn) [Compound 40]
- Kd (AFL lectin): 400 ± 70 nM
- N (stoichiometry) (AFL lectin): 0.84 ± 0.02
- −TΔS (AFL lectin): 51.82 ± 4.04 kcal/mol
- −ΔG (AFL lectin): 8.75 ± 0.096 kcal/mol
- −ΔH (AFL lectin): 60.44 ± 4.06 kcal/mol

Compound: CC1OC(OCc2cn(CC3OC4OC5C(Cn6cc(COC7OC(C)C(O)C(O)C7O)nn6)OC(OC6C(Cn7cc(COC8OC(C)C(O)C(O)C8O)nn7)OC(OC7C(Cn8cc(COC9OC(C)C(O)C(O)C9O)nn8)OC(OC8C(Cn9cc(COC%10OC(C)C(O)C(O)C%10O)nn9)OC(OC9C(Cn%10cc(COC%11OC(C)C(O)C(O)C%11O)nn%10)OC(OC3C(O)C4O)C(O)C9O)C(O)C8O)C(O)C7O)C(O)C6O)C(O)C5O)nn2)C(O)C(O)C1O (stereo not drawn) [Compound 44]
- Kd (AFL lectin; [2]): 1940 ± 500 nM
- N (stoichiometry) (AFL lectin; [2]): 1.36 ± 0.01
- −TΔS (AFL lectin; [2]): 21.6 ± 0.621 kcal/mol
- −ΔG (AFL lectin; [2]): 7.82 ± 0.17 kcal/mol
- −ΔH (AFL lectin; [2]): 29.37 ± 0.454 kcal/mol

Compound: OC[C@H]1O[C@@H]2O[C@H]3[C@H](O)[C@@H](O)[C@@H](O[C@H]4[C@H](O)[C@@H](O)[C@@H](O[C@H]5[C@H](O)[C@@H](O)[C@@H](O[C@H]6[C@H](O)[C@@H](O)[C@@H](O[C@H]7[C@H](O)[C@@H](O)[C@@H](O[C@H]1[C@H](O)[C@H]2O)O[C@@H]7CO)O[C@@H]6CO)O[C@@H]5CO)O[C@@H]4CO)O[C@@H]3CO [free α-cyclodextrine, α-cyclodextrine, reference compound]
- affinity for the AFL lectin (in words) (AFL lectin): no affinity

Compound: CO[C@@H]1O[C@@H](C)[C@@H](O)[C@@H](O)[C@@H]1O [αMeFuc, methylfucoside, reference compound]
- −TΔS (AFL lectin; Table 1, first AFL batch): 6.41 kcal/mol
- −ΔG (AFL lectin; Table 1, first AFL batch): 4.04 kcal/mol
- −ΔH (AFL lectin; Table 1, first AFL batch): 11.5 kcal/mol
- Stoichiometry (AFL lectin; Table 1, first AFL batch): 5
- Kd (AFL lectin; Table 1, first AFL batch, read-out: Kd): 517000 nM
- N (stoichiometry) (AFL lectin; [2]): 3.3 ± 0.42
- −TΔS (AFL lectin; [2]): 9.97 ± 1.48 kcal/mol
- −ΔG (AFL lectin; [2]): 5.4 ± 0.0048 kcal/mol
- −ΔH (AFL lectin; [2]): 15.4 ± 1.48 kcal/mol
- Kd (AFL lectin; Table 2, second batch of purified AFL protein, read-out: Kd): 110000 nM
